Values quoted from earlier work, collected in US8362266B2, “Method of manufacturing a ruthenium complex” (Niiki Pharma Inc., priority 2007, dated 2013).

System: broad spectrum of cancer cells
Conditions: background statement citing Kapitza et al., J. Cancer Res. Clin. Oncol. 131(2):101-10 (2005)

[Cl-].[Cl-].[Cl-].[Cl-].[Ru+3].c1ccc2[nH][nH+]cc2c1.c1ccc2[nH]ncc2c1.c1ccc2[nH]ncc2c1 [KP1099, indazolium trans-[tetrachlorobis(1H-indazole)ruthenate (III)]]
inducing apoptosis: highly potent

[Cl][Ru-]([Cl])([Cl])[Cl].[Na+].c1ccc2[nH]ncc2c1.c1ccc2[nH]ncc2c1 [KP1339, sodium trans-[tetrachlorobis(1H-indazole)ruthenate (III)]]
inducing apoptosis: highly potent
